Assays:
[1] = Forced degradation study (solid state stability) of Tafamidis Form C1; assay type: physicochemical
Source text: Forced degradation is synonymous with stress testing and purposeful degradation. Purposeful degradation can be a useful tool to predict the stability of a drug substance or a drug product with effects on purity, potency, and safety. It is imperative to know the impurity profile and behavior of a drug substance under various stress conditions. Forced degradation also plays an important role in the development of analytical methods, setting specifications, and design of formulations under the quality-by-design (QbD) paradigm. The nature of the stress testing depends on the individual drug substance and the type of drug product (e.g., solid oral dosage, lyophilized powders, and liquid formulations) involved.
A forced degradation study was performed to generate potential degradation products and assess stability liabilities. Tafamidis form C1 prepared as per the present disclosure was subjected to forced degradation study with below specified conditions. […] The samples were analysed at pre-determined time intervals for PXRD, HPLC purity and water content. […] The forced degradation results for Tafamidis Form C1 are tabulated below in Table 1.

[2] = Indicative stability of Tafamidis Form C1 on storage up to 6 months; assay type: physicochemical
Method: The stability of Tafamidis form C1 prepared as per the present disclosure was studied by storing the samples at 2-8° C., 25° C./60% RH; and 40° C./75% RH storage conditions upto 6 months. The samples were analysed for PXRD, HPLC purity and water content at pre-determined time intervals of 1M, 2M, 3M and 6M.
The stability data collected after 6 months of storage are tabulated below in Table 2.

Description ([1]; 0 D, Initial): off-white powder | HPLC Purity ([1]; 0 D, Initial): 99.98 | PXRD ([1]; 0 D, Initial): Form C1 | Water content KF ([1]; 0 D, Initial): 0.57% | Description ([1]; 5 D, 60°C/80% RH): off-white powder | HPLC Purity ([1]; 5 D, 60°C/80% RH): 99.97 | Water content KF ([1]; 5 D, 60°C/80% RH): 0.62% | Description ([1]; 6 Hours (DHS), 105° C.): off-white powder | HPLC Purity ([1]; 6 Hours (DHS), 105° C.): 99.98 | Description ([1]; 6 Hours, 120° C.): off-white powder | HPLC Purity ([1]; 6 Hours, 120° C.): 99.99 | Description ([1]; 7 D, 25° C./60% RH Closed cup): off-white powder | HPLC Purity ([1]; 7 D, 25° C./60% RH Closed cup): 99.98 | Water content KF ([1]; 7 D, 25° C./60% RH Closed cup): 0.42% | Description ([1]; 7 D, 25° C./60% RH Open cup): off-white powder | HPLC Purity ([1]; 7 D, 25° C./60% RH Open cup): 99.98 | Water content KF ([1]; 7 D, 25° C./60% RH Open cup): 0.48% | Description ([1]; 7 D, 40° C./75% RH Closed cup): off-white powder | HPLC Purity ([1]; 7 D, 40° C./75% RH Closed cup): 99.98 | Water content KF ([1]; 7 D, 40° C./75% RH Closed cup): 0.45% | Description ([1]; 7 D, 40° C./75% RH Open cup): off-white powder | HPLC Purity ([1]; 7 D, 40° C./75% RH Open cup): 99.98 | Water content KF ([1]; 7 D, 40° C./75% RH Open cup): 0.72% | Description ([1]; 10 TORR): off-white powder | HPLC Purity ([1]; 10 TORR): 99.99 | degradation under stress conditions ([1]; any of the stress conditions): did not show any degradation | change with respect to PXRD, HPLC purity and water content ([1]; forced degradation, all conditions of Table 1): no significant change | Description ([2]; 0, Initial): Off-white colour | HPLC Purity ([2]; 0, Initial): 99.99 | PXRD ([2]; 0, Initial): Form C1 | Water content KF ([2]; 0, Initial): 0.34% | Description ([2]; 1 month, 2-8° C.): Off-white colour | HPLC Purity ([2]; 1 month, 2-8° C.): 99.98 | Water content KF ([2]; 1 month, 2-8° C.): 0.88% | Description ([2]; 1 month, 25° C./60% RH): Off-white colour | HPLC Purity ([2]; 1 month, 25° C./60% RH): 99.98 | Water content KF ([2]; 1 month, 25° C./60% RH): 0.85% | Description ([2]; 1 month, 40° C./75% RH): Off-white colour | HPLC Purity ([2]; 1 month, 40° C./75% RH): 99.99 | Water content KF ([2]; 1 month, 40° C./75% RH): 0.8% | Description ([2]; 2 months, 2-8° C.): Off-white colour | HPLC Purity ([2]; 2 months, 2-8° C.): 99.98 | Water content KF ([2]; 2 months, 2-8° C.): 0.63% | Description ([2]; 2 months, 25° C./60% RH): Off-white colour | HPLC Purity ([2]; 2 months, 25° C./60% RH): 99.98 | Water content KF ([2]; 2 months, 25° C./60% RH): 0.68% | Description ([2]; 2 months, 40° C./75% RH): Off-white colour | HPLC Purity ([2]; 2 months, 40° C./75% RH): 99.98 | Water content KF ([2]; 2 months, 40° C./75% RH): 0.78% | Description ([2]; 3 months, 2-8° C.): Off-white colour | HPLC Purity ([2]; 3 months, 2-8° C.): 99.98 | Water content KF ([2]; 3 months, 2-8° C.): 1.02% | Description ([2]; 3 months, 25° C./60% RH): Off-white colour | HPLC Purity ([2]; 3 months, 25° C./60% RH): 99.98 | Water content KF ([2]; 3 months, 25° C./60% RH): 0.92% | Description ([2]; 3 months, 40° C./75% RH): Off-white colour | HPLC Purity ([2]; 3 months, 40° C./75% RH): 99.98 | Water content KF ([2]; 3 months, 40° C./75% RH): 0.85% | Description ([2]; 6 months, 2-8° C.): Off-white colour | HPLC Purity ([2]; 6 months, 2-8° C.): 99.98 | Water content KF ([2]; 6 months, 2-8° C.): 0.79% | Description ([2]; 6 months, 25° C./60% RH): Off-white colour | HPLC Purity ([2]; 6 months, 25° C./60% RH): 99.98 | Water content KF ([2]; 6 months, 25° C./60% RH): 0.61% | Description ([2]; 6 months, 40° C./75% RH): Off-white colour | HPLC Purity ([2]; 6 months, 40° C./75% RH): 99.98 | Water content KF ([2]; 6 months, 40° C./75% RH): 0.65% | change with respect to PXRD, HPLC purity and water content ([2]; all the storage conditions (2-8° C., 25° C./60% RH, 40° C./75% RH) up to 6 months): no significant change
SMILES: O=C(O)c1ccc2nc(-c3cc(Cl)cc(Cl)c3)oc2c1 [Form C1, 2-(3,5-Dichlorophenyl)-1,3-benzoxazole-6-carboxylic acid]

— US20240059661A1, “SOLID STATE FORMS OF 2-(3,5-DICHLOROPHENYL)-1,3-BENZOXAZOLE-6-CARBOXYLIC ACID OR ITS PHARMACEUTICALLY ACCEPTABLE SALTS AND POLYMORPHS THEREOF” (CIPLA LIMITED, priority 2021, published 2024)
